{"source": "patent US20240425867A1", "about": "“NUCLEIC ACID-BASED ASSEMBLY AND USES THEREOF” (Rheinische Friedrich-Wilhelms-Universität Bonn, priority 2016, published 2024)", "key": {"[1]": {"test_system": "H1838 cells", "conditions": "DxR 8 μM, 37° C., 2 h, non-irradiated", "quoted_text": "For flow cytometry analysis of HyApNc-mediated DxR uptake, the H1838 cells (1×10^5 cells/well) were seeded for 24 h at 37° C. […] The plates were then incubated for 2 h at 37° C. Afterwards, the cells were detached from the plates by trypsinization and transferred to FACS tubes. The cells were then washed twice by centrifugation with 0.5 mL buffer. Afterwards the cell pellets were resuspended in 100 μL 1×PBS buffer and cither irradiated with UV light for 5 minutes (_=365 nm, 350 mW/cm^2) or not irradiated before subjected to FACS analysis. Fluorescence emissions of the internalized DxR were recorded with a 585/42-nm band-pass filter."}, "[2]": {"test_system": "NCI-H1838 lung cancer cells", "assay": "Cell viability (MTT) assay, dose dependent", "assay_type": "cell-based", "conditions": "Homo sapiens, free DxR alone (control), MTT after 24 h", "protocol": "To assess the cytotoxicity of free DxR and HyApNc-DxR in NCI-H1838 lung cancer cells, the H1838 cells (2×10^4 cells/well) were seeded in a 96 well plate and grown for 24 h. The cells were then washed with 1×PBS (200 μL) and subsequently treated with i) free DxR (as control), ii) HyApNc-DxR or iii) HyApNc.mut-DxR in a dose dependent way with a final DxR concentration ranging from 0.125μM to 50 μM per well. After 2 h of post-treatment, the cells were washed; the RPMI medium was replaced with a fresh RPMI medium, and subsequently either irradiated with UV light for 5 minutes (_=365 nm; 350 mW/cm^2), or not irradiated. Afterwards the cells were incubated for another 24 h at 37° C.\nThen for both experiments, 15 μL of a 3-(4,5-dimethylthiazol-2-yl)-2,5-diphenyltetrazolium bromide (MTT) stock solution (5 mg/mL) was added to each well and the cells were incubated at 37° C. for 6 hours. After 6 h post-tretment with MTT solutions, 100 μL of the SDS-HCL solution was added to each well and mixed thoroughly with a pipette and incubated at 37° C. for an additional 12 hours. Finally the absorbance was measured at λ=570 nm by using a Tecan Infinite® M1000 PRO microplate reader."}, "[3]": {"test_system": "H1838 cells", "assay": "Confocal microscopy of photo-triggered DxR release in cells", "assay_type": "cell-based, human", "conditions": "DxR 40 μM, 37° C., 2 h, without UV irradiation", "protocol": "In vitro cell imaging of the cell internalization studies were performed using fluorescence microscopy. Prior to each experiment one 70 to 80% confluent flask was trypsinised and suspended with 10 ml of cell medium. 10 μL of the cell solution was pipetted onto a haemocytometer and the cells were counted. Twenty-four hours prior to the internalization experiments approximately 10,000 NSCLC cells were seeded in 96-well glass bottom multiwell cell culture plates (MatTek® Corporation). The plates were then incubated for 24 hours at 37° C. in 5% CO2-atmosphere. […]\nTo verify the HyApNc-mediated selective transport of DxR to target cells and its light-triggered release from motif 4, we monitored the fluorescence signal of DxR within and outside of the cell nuclei of H1838 cells that were treated with either free DxR (as control) or with HyApNc-DxR (see Example 1 for details of DxR loading), while keeping the DxR concentrations in the bound and the unbound form fixed at 40 μM (5 μM HyApNc carrying 8 equivalents of DxR). […] When control experiments were performed with a construct lacking DMAB (HyApNcw/oAz-DxR), near-identical DxR fluorescence signals are predominantly observed in the cytosol of the cells with and without UV exposure (FIG. 24A, IV-V)."}, "[4]": {"assay": "Serum stability in PBS-buffered human blood serum (PAGE of 32P-labeled aptamer)", "assay_type": "in vitro ADME", "conditions": "10% PBS-buffered HBS, 37° C., 0 to 72 h", "protocol": "(§1) Serum stabilities of trCLN3, its two point mutant non-binding variant trCLN3.mut and their corresponding lipid-functionalized derivatives trCLN3-L4 and trCLN3.mut-L4 were investigated in fetal calf serum (FCS) and human blood serum. For this purpose, the aptamer motifs were labeled at their 5′-end with ^32P to form radiolabeled oligonucleotides. The degradation tests of all the aptamer motifs were performed for 60-72 h at 37°° C. 6 pmol (12 μl of 0.5 μM) of the radio-labeled aptamer (5′-end-labeled with γ-^32P) was incubated in a volume of 300 μl freshly thawed PBS-buffered FCS or human blood serum (270 μl serum+30 μl 10×PBS). For each measurement, 10 μl of the samples were removed, mixed with 90 μl of gel loading buffer (80% formamide+5 mM EDTA+0.01% SDS) and subsequently stored at −20° C. Aliquots of samples were taken after indicated time intervals of 0, 0.3, 1.5, 3, 6, 24, 48, 60 and 72h respectively. The serum stability of the aptamer in FCS or in HBS at different time intervals were analyzed on a denaturing PAGE by loading 10 μl of each sample onto a 10% TAE-Urea gel and running the gels for 90 minutes at 350 V. Gels were wrapped in clingfilm and exposed to a phosphorimager screen in a closed cassette over a period of 12 h and finally the residual intact aptamer bands were analyzed by scanning the screen in a phosphorimage-scanner (FujiFilm FLA 3000). Intensities of the residual intact aptamer bands were calculated applying AIDA image analyzer software program. Serums half-lives of the selected aptamers were determined by using a half-life curve-fitting data analysis program (GraphPad Prism)."}, "[5]": {"assay": "Serum stability in PBS-buffered fetal calf serum (PAGE of 32P-labeled aptamer)", "assay_type": "in vitro ADME", "conditions": "10% PBS-buffered FCS, 37° C., 0 to 72 h", "protocol": "as §1"}, "[6]": {"target": "T1, cMet (Homo sapiens, UniProt P08581)", "T1 construct": "cMet-Fc, which represents the ectodomain of cMet fused to the Fc domain of human IgG1 was purchased from R&D Systems; purchased R&D Systems", "T1 sequence (P08581 25-932 limits assumed)": "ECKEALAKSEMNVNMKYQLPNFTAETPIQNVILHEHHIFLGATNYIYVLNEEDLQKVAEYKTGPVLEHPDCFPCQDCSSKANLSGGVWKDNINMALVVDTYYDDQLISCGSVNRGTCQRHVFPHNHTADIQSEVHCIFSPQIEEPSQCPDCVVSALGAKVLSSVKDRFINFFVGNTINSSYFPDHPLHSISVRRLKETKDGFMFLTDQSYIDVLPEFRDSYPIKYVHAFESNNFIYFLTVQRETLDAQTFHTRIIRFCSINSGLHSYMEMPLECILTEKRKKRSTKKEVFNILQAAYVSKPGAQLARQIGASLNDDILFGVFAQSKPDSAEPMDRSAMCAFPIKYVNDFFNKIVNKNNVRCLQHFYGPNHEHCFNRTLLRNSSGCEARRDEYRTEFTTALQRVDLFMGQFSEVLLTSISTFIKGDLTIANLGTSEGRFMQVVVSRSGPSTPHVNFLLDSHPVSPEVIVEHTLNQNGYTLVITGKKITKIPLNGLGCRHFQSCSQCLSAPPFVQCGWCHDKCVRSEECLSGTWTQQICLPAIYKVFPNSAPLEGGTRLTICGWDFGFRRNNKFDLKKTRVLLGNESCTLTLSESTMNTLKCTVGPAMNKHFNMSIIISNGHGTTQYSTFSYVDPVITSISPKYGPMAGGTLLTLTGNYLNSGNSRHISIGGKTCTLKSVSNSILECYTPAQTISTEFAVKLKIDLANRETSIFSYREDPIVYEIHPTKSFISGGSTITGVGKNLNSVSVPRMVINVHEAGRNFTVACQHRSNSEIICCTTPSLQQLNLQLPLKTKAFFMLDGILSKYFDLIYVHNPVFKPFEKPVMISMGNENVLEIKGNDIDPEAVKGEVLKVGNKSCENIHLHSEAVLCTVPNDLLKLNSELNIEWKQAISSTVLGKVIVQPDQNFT", "assay": "Filter retention assay with 32P-labeled aptamer", "assay_type": "binding", "conditions": "filter retention assays", "description": "The anti-cMet aptamer trCLN3, a 40 nucleotide DNA oligonucleotide rich in guanine sequence, is known to form two intramolecular G-quadruplex structure within the G-rich segment of the aptamer. The G-quadruplex structure in trCLN3 is believed to play a role in target recognition and binding to cMet. […] See J. Vinkenborg et al., Angew Chem Int Ed. 2012, […], 9176-9180; which reference is incorporated herein in its entirety. Binding affinity of trCLN3.mut, a control sequence with a guanine double-point mutation corresponding to G7 and G25 was further verified by filter retention assays."}, "[7]": {"target": "T1, cMet", "conditions": "binding to HGFR (cMet); read-out: dissociation constant (Kd); cited from earlier work"}, "[8]": {"target": "T1, cMet", "assay": "Competitive filter-binding assay against γ-32P-labeled trCLN3", "conditions": "competition with γ-32P-trCLN3, cMet ~50 nM, competitor 1 μM-25 pM, 37° C.", "protocol": "To test the effect of lipid-modification on trCLN3 binding properties, we determined IC50 values for each trCLN3 derivative by a competitive filter retention assay in which varying concentrations of unlabeled 5′-(1-dodecynyl)-functionalized trCLN3 aptamers competed with constant amounts of γ-^32P-labeled trCLN3 in binding to cMet. Two control experiments were also performed using unlabeled trCLN3 and its two point mutant variant trCLN3.mut as competitors.\nFirst, the trCLN3 motif was 5′-end-labeled with γ-^32P ATP using T4 polynucleotide kinase. An aliquot of 20 μL solution containing 50 pmol trCLN3. 6.7 pmol γ-^32P ATP and 20 U T4 polynucleotide kinase in 1× polynucleotide kinase buffer (New England Biolabs) was incubated at 37° C. for 45 min. followed by removal of unreacted γ-^32P ATP using an Illustra G-25 microspin column (GE Healthcare. München, Germany). The purity of the radiolabeled aptamer was confirmed using a 10% PAGE-gel.\n0.25 mg/ml BSA. 2 mM MgCl2 in 1×PBS, pH 7.4. […] Residual radioactivity due to cMet bound labeled aptamers was quantified using Fujifilm Fla-3000 PhosphorImager and AIDA software. The curves were fitted with GraphPadPrism 3.02 plotting non-linear regression curve and the IC50 values have been calculated assuming a competition for single binding site."}}, "note": "Values joined by “and” are separate entries in the source; they are usually repeats but may differ in a detail not shown here. Equal entries are not always repeated."}
{"compound": "COc1cccc2c1C(=O)c1c(O)c3c(c(O)c1C2=O)C[C@@](O)(C(=O)CO)C[C@@H]3O[C@H]1C[C@H](N)[C@H](O)[C@H](C)O1", "note": "[free DxR, (7S,9S)-7-[(2R,4S,5S,6S)-4-amino-5-hydroxy-6-methyloxan-2-yl]oxy-6,9,11-trihydroxy-9-(2-hydroxyacetyl)-4-methoxy-8,10-dihydro-7H-tetracene-5,12-dione]", "values": [{"measurement": "increase in mean cellular fluorescence intensity vs equivalent dose of HyApNc-DxR or HyApNcw/oAz-DxR", "setting": "[1]", "result": 5, "unit": "fold"}, {"measurement": "IC50", "setting": "[2]", "result": "8 µM and 4.7 µg/mL"}, {"measurement": "DxR fluorescence in cell nuclei (confocal)", "setting": "[3]", "result": "Strong DxR fluorescence"}]}
{"compound": "trCLN3.mut: non-binding control sequence of trCLN3 with guanine double-point mutation at G7 and G25 (DNA TGGATGATAGCTCGGTCGGGGTGGATGGGTTGGCAAGTCT; DNA, backbone and methylation of C not given here)", "values": [{"measurement": "serum half-life (t1/2)", "setting": "[4]", "result": 1.9, "unit": "h"}, {"measurement": "serum half-life (t1/2)", "setting": "[5]", "result": 2.8, "unit": "h"}, {"measurement": "binding to cMet", "setting": "[6]", "result": "almost no binding"}]}
{"compound": "trCLN3: 40-nucleotide anti-cMet DNA aptamer, 5′-TGGATGGTAGCTCGGTCGGGGTGGGTGGGTTGGCAAGTCT-3′ (DNA, backbone and methylation of C not given here)", "values": [{"measurement": "serum half-life (t1/2)", "setting": "[4]", "result": 4.9, "unit": "h"}, {"measurement": "serum half-life (t1/2)", "setting": "[5]", "result": 8.7, "unit": "h"}, {"measurement": "Kd", "setting": "[7]", "result": 38, "unit": "nM"}, {"measurement": "IC50", "setting": "[8]", "result": 56, "unit": "nM"}]}
